In patent EP2987533B1, “7-substituted piperazin-1-yl fluoroquinolone compounds, their use in the treatment of cancer, pharmaceutical compositions and a method for preparation” (priority 2014, dated 2016):

What was measured:
Experiment in all cases: NCI five-dose SRB growth assay
Assay type in all cases: cell-based
HOP-62 = settings: Homo sapiens; HOP-62 (Non-Small Cell Lung Cancer), 48 h
NCI-H522 = settings: Homo sapiens; NCI-H522 (Non-Small Cell Lung Cancer), 48 h
UACC-257 = settings: Homo sapiens; UACC-257 (Melanoma), 48 h
SK-MEL-2 = settings: Homo sapiens; SK-MEL-2 (Melanoma), 48 h
MDA-MB-231/ATCC = settings: Homo sapiens; MDA-MB-231/ATCC (Breast Cancer), 48 h
A549/ATCC = settings: Homo sapiens; A549/ATCC (Non-Small Cell Lung Cancer), 48 h
SF-268 = settings: Homo sapiens; SF-268 (CNS Cancer), 48 h
SK-OV-3 = settings: Homo sapiens; SK-OV-3 (Ovarian Cancer), 48 h
KM12 = settings: Homo sapiens; KM12 (Colon Cancer), 48 h
PC-3 = settings: Homo sapiens; PC-3 (Prostate Cancer), 48 h
UO-31 = settings: Homo sapiens; UO-31 (Renal Cancer), 48 h
OVCAR-8 = settings: Homo sapiens; OVCAR-8 (Ovarian Cancer), 48 h
OVCAR-3 = settings: Homo sapiens; OVCAR-3 (Ovarian Cancer), 48 h
MDA-MB-435 = settings: Homo sapiens; MDA-MB-435 (Melanoma), 48 h
BT-549 = settings: Homo sapiens; BT-549 (Breast Cancer), 48 h
NCI-H226 = settings: Homo sapiens; NCI-H226 (Non-Small Cell Lung Cancer), 48 h
SK-MEL-5 = settings: Homo sapiens; SK-MEL-5 (Melanoma), 48 h
UACC-62 = settings: Homo sapiens; UACC-62 (Melanoma), 48 h
MALME-3M = settings: Homo sapiens; MALME-3M (Melanoma), 48 h
COLO 205 = settings: Homo sapiens; COLO 205 (Colon Cancer), 48 h
A498 = settings: Homo sapiens; A498 (Renal Cancer), 48 h
MDA-MB-468 = settings: Homo sapiens; MDA-MB-468 (Breast Cancer), 48 h
CCRF-CEM = settings: Homo sapiens; CCRF-CEM (Leukemia), 48 h
786-0 = settings: Homo sapiens; 786-0 (Renal Cancer), 48 h
SNB-19 = settings: Homo sapiens; SNB-19 (CNS Cancer), 48 h
T-47D = settings: Homo sapiens, T47D; T-47D (Breast Cancer), 48 h
PRMI-8226 = settings: Homo sapiens; PRMI-8226 (Leukemia), 48 h
CAKI-1 = settings: Homo sapiens; CAKI-1 (Renal Cancer), 48 h
HCT-15 = settings: Homo sapiens; HCT-15 (Colon Cancer), 48 h
NCI-H23 = settings: Homo sapiens; NCI-H23 (Non-Small Cell Lung Cancer), 48 h
RXF 393 = settings: Homo sapiens; RXF 393 (Renal Cancer), 48 h
HL-60(TB) = settings: Homo sapiens; HL-60(TB) (Leukemia), 48 h
OVCAR-5 = settings: Homo sapiens; OVCAR-5 (Ovarian Cancer), 48 h
MCF7 = settings: Homo sapiens; MCF7 (Breast Cancer), 48 h
SW-620 = settings: Homo sapiens; SW-620 (Colon Cancer), 48 h
SF-539 = settings: Homo sapiens; SF-539 (CNS Cancer), 48 h
NCI/ADR-RES = settings: Homo sapiens; NCI/ADR-RES (Ovarian Cancer), 48 h
NCI-H322M = settings: Homo sapiens; NCI-H322M (Non-Small Cell Lung Cancer), 48 h
HOP-92 = settings: Homo sapiens; HOP-92 (Non-Small Cell Lung Cancer), 48 h

SMILES | GI50 (HOP-62) [µM] | GI50 (NCI-H522) [µM] | GI50 (UACC-257) [µM] | GI50 (MDA-MB-231/ATCC) [µM] | GI50 (A549/ATCC) [µM] | GI50 (SF-268) [µM] | GI50 (KM12) [µM] | GI50 (UO-31) [µM] | GI50 (OVCAR-8) [µM] | GI50 (OVCAR-3) [µM] | GI50 (BT-549) [µM] | GI50 (NCI-H226) [µM] | GI50 (SK-MEL-5) [µM] | GI50 (UACC-62) [µM] | GI50 (COLO 205) [µM] | GI50 (A498) [µM] | GI50 (MDA-MB-468) [µM] | GI50 (CCRF-CEM) [µM] | GI50 (786-0) [µM] | GI50 (SNB-19) [µM] | further results
CCn1cc(C(=O)O)c(=O)c2cc(F)c(N3CCN(S(=O)(=O)c4ccc(Cl)cc4)CC3)cc21 [Compound 1a] | 4.47 | 1.73 | 2.16 | 2.51 | 2.81 | 3.85 | 4.07 | 2.07 | 2.8 | 3.51 | 2.44 | 3.02 | 1.8 | 2.02 | 2.62 | 1.81 | 2.1 | 2.93 | 3.77 | 3.97 | GI50 (SK-MEL-2): 2.57 µM; GI50 (SK-OV-3): 3.28 µM; GI50 (PC-3): 2.31 µM; GI50 (MDA-MB-435): 2.47 µM; GI50 (MALME-3M): 1.99 µM; GI50 (T-47D): 3.2 µM; GI50 (PRMI-8226): 3.08 µM; GI50 (CAKI-1): 2.75 µM; GI50 (HCT-15): 3.62 µM; GI50 (NCI-H23): 2.67 µM; GI50 (RXF 393): 3.32 µM; GI50 (HL-60(TB)): 2.18 µM; GI50 (OVCAR-5): 4.25 µM; GI50 (MCF7): 2.97 µM; GI50 (SW-620): 3.43 µM; GI50 (SF-539): 4.12 µM; GI50 (NCI/ADR-RES): 2.98 µM
O=C(O)c1cn(C2CC2)c2cc(N3CCN(S(=O)(=O)c4ccc(Cl)c(Cl)c4)CC3)c(F)cc2c1=O [Compound 3b] | 4.77 | 1.99 | 2.48 | 2.14 | 3.08 | 4.77 | 3.62 | 2.58 | 3.33 | 3.9 | 2.98 | 3.58 | 2.04 | 1.75 | 3.5 | 2.91 | 2.25 | 2.61 | 4.02 | 3.25 | GI50 (SK-MEL-2): 3.16 µM; GI50 (PC-3): 2.46 µM; GI50 (MDA-MB-435): 2.97 µM; GI50 (NCI-H322M): 3.24 µM; GI50 (HOP-92): 1.54 µM; GI50 (MALME-3M): 2.3 µM; GI50 (T-47D): 3.77 µM; GI50 (PRMI-8226): 2.53 µM; GI50 (CAKI-1): 2.71 µM; GI50 (HCT-15): 3.3 µM; GI50 (NCI-H23): 2.9 µM; GI50 (RXF 393): 2.98 µM; GI50 (HL-60(TB)): 2.04 µM; GI50 (OVCAR-5): 4.14 µM; GI50 (MCF7): 2.84 µM; GI50 (SW-620): 4.05 µM; GI50 (SF-539): 3.39 µM; GI50 (NCI/ADR-RES): 4.01 µM
CCn1cc(C(=O)O)c(=O)c2cc(F)c(N3CCN(S(=O)(=O)c4cccc5ccccc45)CC3)cc21 [Compound 7a] | 4.6 | 2.78 | 2.72 | 1.91 | 2.87 | 4.39 | 2.96 | 2.21 | 3.09 | 3.69 | 3.7 | 3.71 | 2.24 | 2.25 | 2.02 | 2.74 | 2.52 | 3.67 | 4.5 | 3.47 | GI50 (SK-MEL-2): 3.55 µM; GI50 (SK-OV-3): 3.11 µM; GI50 (PC-3): 2.66 µM; GI50 (MDA-MB-435): 3.13 µM; GI50 (NCI-H322M): 2.6 µM; GI50 (HOP-92): 1.25 µM; GI50 (MALME-3M): 2.83 µM; GI50 (T-47D): 3.35 µM; GI50 (PRMI-8226): 2.79 µM; GI50 (CAKI-1): 2.33 µM; GI50 (HCT-15): 3.15 µM; GI50 (NCI-H23): 3.13 µM; GI50 (RXF 393): 3.19 µM; GI50 (HL-60(TB)): 2.58 µM; GI50 (OVCAR-5): 3.38 µM; GI50 (MCF7): 2.72 µM; GI50 (SW-620): 3.57 µM; GI50 (SF-539): 2.43 µM; GI50 (NCI/ADR-RES): 3.2 µM
Cc1cc(C)c(S(=O)(=O)N2CCN(c3cc4c(cc3F)c(=O)c(C(=O)O)cn4C3CC3)CC2)c(C)c1 [Compound 6b] | 3.65 | 2.8 | > 100 | 2.03 | 2.23 | 3.96 | 3.38 | 1.96 | 2.87 | 3.17 | 3.34 | 1.23 | 3.03 | 2.43 | 3.4 | 2.37 | 1.97 | 2.8 | 4.08 | 2.56 | GI50 (SK-OV-3): 3.02 µM; GI50 (NCI-H322M): 5.19 µM; GI50 (HOP-92): 1.52 µM; GI50 (T-47D): 4.81 µM; GI50 (PRMI-8226): 2.34 µM; GI50 (CAKI-1): 1.8 µM; GI50 (HCT-15): 2.55 µM; GI50 (NCI-H23): 3.41 µM; GI50 (RXF 393): 2.41 µM; GI50 (MCF7): 2.59 µM; GI50 (SW-620): 3.4 µM; GI50 (SF-539): 3.14 µM; GI50 (NCI/ADR-RES): 3.29 µM
